Measured values reported in patent US20030171293A1, “Neuropeptide receptor and uses thereof” (Pfizer Inc., priority 2002, published 2003).
Where a SMILES comes first, the peptide text is derived from it. Bridges are numbered along the chain shown (N, C = ends). [ ]: non-standard residue; d: D form. dTrp(2-Me) = Cc1[nH]c2ccccc2c1C[C@@H](N)C(=O)O; d2Nal = N[C@H](Cc1ccc2ccccc2c1)C(=O)O; Nle = CCCC[C@H](N)C(=O)O

Columns and labels:
[1] = target: T1, receptor MRGX2 (Homo sapiens, UniProt Q96LB1); test: Functional assay measuring intracellular calcium mobilisation (FLIPR); format: cell-based; settings: for EC50: Preliminary EC50 data for receptor MRGX2, transiently transfected cells, Fluo3 calcium response; for response of MRGX2 receptor: at a concentration of 1 μM
T1 construct: expressed in transfected cells; host or cells: host line such as HEK293 or CHO-K1, stably expressing Galpha15/Gqi-5
T1 sequence (Q96LB1 1-330): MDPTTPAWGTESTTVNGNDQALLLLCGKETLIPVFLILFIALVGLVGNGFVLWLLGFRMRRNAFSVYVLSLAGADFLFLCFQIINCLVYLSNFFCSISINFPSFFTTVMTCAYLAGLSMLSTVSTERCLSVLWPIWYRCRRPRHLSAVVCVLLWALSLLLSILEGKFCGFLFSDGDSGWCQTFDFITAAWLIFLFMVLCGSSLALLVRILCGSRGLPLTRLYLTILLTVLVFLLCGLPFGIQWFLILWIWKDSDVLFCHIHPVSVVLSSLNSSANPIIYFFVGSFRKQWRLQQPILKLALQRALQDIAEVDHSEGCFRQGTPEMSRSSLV
Procedure: 5×10^6 cells of a suitable host cell line, chosen to express a low number of endogenous receptors (e.g. HEK293 or CHO-K1) and engineered to stably express Gα15/Gqi-5, were transiently transfected with 7.5 μg of cDNA encoding receptor MRGX2 in a suitable mammalian cell expression vector, or vector alone, using Lipofectamine Plus® reagent (Gibco BRL) as per the manufacturer's protocol. If the cells were intended for a ligand binding assay or microphysiometry, they were incubated for 24-72 hours post transfection, and then harvested. If a microtitre plate-based assay was intended, the cells were detached from the flask using Trypsin/EDTA solution (LTI) 24 hours post transfection, and seeded into e.g. a black sided, Poly-D-lysine-treated, 96-well plate (Becton Dickinson) at 5×10^4 cells/well density. The plates were left overnight to allow the cells to adhere to the bottom of the wells.
Fluorescence Imaging Plate Reader (FLIPR®) technology was employed as a means to detect activation of receptor MRGX2 by various potential GPCR agonists.
24 hrs post-transfection, the cells were detached from the flask using Trypsin/EDTA solution (LTI) and seeded into a black sided, Poly-D-lysine-treated, 96-well plate (Becton Dickinson) at 5×10^4 cells/well density. The plates were left overnight to allow the cells to adhere to the bottom of the wells. The medium was removed from the cells and replaced with 100 μl warm (37° C.) dye loading solution (50 μg Fluo3 (Molecular Probes) in 20 μl DMSO+20% pluronic acid in DMSO, added to 11 ml Dulbecco's Modified Eagles Medium containing 1× Probenecid (100× Probenecid—0.71 g Probenecid was dissolved in 5 ml 1 M NaOH and 5 ml Dulbeccos' Phosphate Buffered Saline (PBS), per plate; Probenecid (Molecular Probes) inhibits activity of the anion transport protein, thus improving dye loading). The plates were then incubated for 1 hr at 37° C. Plates were subsequently washed with 250 μl of wash buffer per well (5 ml 100× Probenecid stock+495 ml PBS, pH 7.4) 4 times. The plates were returned to the 37° C./5%CO2 incubator for 30 mins prior to processing within the FLIPR® instrument. The FLIPR® processing involved reading the fluorescence for all samples for 2 minutes; during this time the fluorescence baseline was determined for 10 seconds. The desired amount of compounds (i.e. potential GPCR agonists) was then automatically transferred to the wells and the fluorescence was continuously monitored for the remainder of the time. All compounds were diluted in wash buffer.

[2] = test system: guinea pig ileum; settings: GPI assay; cited from earlier work
[3] = test system: food intake; settings: i.c.v., free feeding rats; maximal response at 1 nmol dose; cited from earlier work

Compound	EC50 [1]	further results
Cc1[nH]c2ccccc2c1C[C@@H](NC(=O)[C@@H](N)Cc1cnc[nH]1)C(=O)N[C@@H](C)C(=O)N[C@@H](Cc1c[nH]c2ccccc12)C(=O)N[C@H](Cc1ccccc1)C(=O)N[C@@H](CCCCN)C(N)=O [Hexarelin] (H-H[dTrp(2-Me)]AW[dF]K-NH2)	9.5 µM	
NCCC[C@@H](NC(=O)[C@@H]1CCCN1C(=O)[C@@H]1CSSCCC(=O)N[C@@H](Cc2ccc(O)cc2)C(=O)N[C@@H](Cc2ccccc2)C(=O)N[C@@H](CCC(N)=O)C(=O)N[C@@H](CC(N)=O)C(=O)N1)C(=O)NCC(N)=O [(Deamino-Cysl,D-Orn^8) Vasopressin]	> 10 µM	
CC[C@H](C)[C@H](NC(=O)[C@H](CCCNC(=N)N)NC(=O)[C@H](CCCNC(=N)N)NC(=O)[C@H](CC(C)C)NC(=O)[C@H](Cc1ccccc1)NC(=O)CNC(=O)CNC(=O)[C@@H](N)Cc1ccc(O)cc1)C(=O)N[C@@H](CCCNC(=N)N)C(=O)N1CCC[C@H]1C(=O)N[C@@H](CCCCN)C(=O)N[C@@H](CC(C)C)C(=O)N[C@@H](CCCCN)C(=O)N[C@@H](Cc1c[nH]c2ccccc12)C(=O)N[C@@H](CC(=O)O)C(=O)N[C@@H](CC(N)=O)C(=O)N[C@@H](CCC(N)=O)C(=O)O [Dynorphin A]	1.85 µM	potency relative to [Leu]-enkephalin [2]: 700 times; potency relative to normorphine [2]: about 200 times; potency relative to β-endorphin [2]: 50 times
CC(C)C[C@H](NC(=O)CNC(=O)[C@H](CCC(=O)O)NC(=O)CNC(=O)[C@H](C)N)C(=O)N[C@@H](CC(N)=O)C(=O)N[C@@H](CO)C(=O)N[C@@H](CCC(N)=O)C(=O)N[C@@H](Cc1ccccc1)C(=O)N[C@@H](Cc1c[nH]c2ccccc12)C(=O)N[C@@H](CO)C(=O)N[C@@H](CC(C)C)C(=O)N[C@@H](C)C(=O)N[C@@H](C)C(=O)N1CCC[C@H]1C(=O)N[C@@H](CCC(N)=O)C(=O)N[C@@H](CCCNC(=N)N)C(=O)N[C@@H](Cc1ccccc1)C(N)=O [NPAF] (H-AGEGLNSQFWSLAAPQRF-NH2; N-terminus assumed)	> 10 µM	
γ-MSH		response of MRGX2 receptor [1]: responds
α-MSH		response of MRGX2 receptor [1]: responds
C[C@@H](O)[C@@H]1NC(=O)[C@H](CCCCN)NC(=O)[C@@H](Cc2c[nH]c3ccccc23)NC(=O)[C@H](Cc2ccccc2)NC(=O)[C@@H](NC(=O)[C@H](N)Cc2ccccc2)CSSC[C@@H](C(=O)N[C@H](CO)[C@@H](C)O)NC1=O [Octreotide]	> 10 µM	
CCCC[C@@H]1NC(=O)[C@@H](NC(C)=O)CSSC[C@@H](C(N)=O)NC(=O)CNC(=O)[C@H](Cc2c[nH]c3ccccc23)NC(=O)[C@H](CCCNC(=N)N)NC(=O)[C@@H](Cc2ccc3ccccc3c2)NC(=O)[C@H](Cc2c[nH]cn2)NC(=O)[C@H](CCCNC(=N)N)NC1=O [HS024, (Acetyl-Cys^3,Nle^4,Arg^5,D-2-Nal^7,Cys^11)-α-MSH (3-11) amide] (Ac-C[Nle]RH[d2Nal]RWGC-NH2; disulfide 1-9 (inferred))		effect on food intake [3]: dose dependant increase in food intake
CC(C)C[C@H](NC(=O)[C@@H](N)CO)C(=O)N[C@@H](C)C(=O)N[C@@H](C)C(=O)N1CCC[C@H]1C(=O)N[C@@H](CCC(N)=O)C(=O)N[C@@H](CCCNC(=N)N)C(=O)N[C@@H](Cc1ccccc1)C(N)=O [NPSF] (H-SLAAPQRF-NH2)	> 10 µM	
CC(C)C[C@H](NC(=O)[C@H](CCCCN)NC(=O)[C@H](CCCN=C(N)N)NC(=O)[C@H](C)NC(=O)[C@H](CO)NC(=O)[C@H](CCCCN)NC(=O)[C@H](CCCN=C(N)N)NC(=O)[C@H](C)NC(=O)CNC(=O)[C@@H](NC(=O)[C@H](Cc1ccccc1)NC(=O)CNC(=O)CNC(=O)[C@@H](N)Cc1ccccc1)[C@@H](C)O)C(=O)N[C@@H](C)C(=O)N[C@@H](CC(N)=O)C(=O)N[C@@H](CCC(N)=O)C(=O)O [Nociceptin]	> 10 µM	
CC(=O)N[C@H]1CSSC[C@@H](C(=O)N2CCC[C@H]2C(=O)N2CCC[C@H]2C(=O)N[C@@H](CCCCN)C(=O)N[C@@H](CC(=O)O)C(N)=O)NC(=O)CNC(=O)[C@H](Cc2c[nH]c3ccccc23)NC(=O)[C@H](CCCNC(=N)N)NC(=O)[C@@H](Cc2ccc3ccccc3c2)NC(=O)[C@H](Cc2c[nH]cn2)NC(=O)[C@H](CCC(=O)O)NC1=O [HS014] (Ac-CEH[d2Nal]RWGCPPKD-NH2; disulfide 1-8; N-terminus and C-terminus assumed)	> 10 µM	
